Assay results: patent US20200129523A1, “SHIP INHIBITION TO INDUCE EXPRESSION OF GRANULOCYTE COLONY STIMULATING FACTOR IN A SUBJECT” (THE RESEARCH FOUNDATION FOR THE STATE UNIVERSITY OF NEW YORK, priority 2014, published 2020)
“Also recorded” adds a separate entry of the source.

Assays:
HSC = assay: CRU assay (competitive repopulating units), primary and secondary; assay type: in vivo, mice
Description: CD45.1^+45.2^+-recipient mice were given a split dose of 550 Rads (x-ray source, RS2000-RAD source technologies, inc.) 4 hours apart for a lethal total dose of 1100 Rads. WBM (5×10^5) cells from 3AC (CD45.2) treated mice were competed with WBM cells from vehicle (CD45.1) treated mice and injected retro-orbitally into CD45.1^+45.2^+ hosts. PBMC multi-lineage reconstitution was evaluated every month post-transplant for 4 months. Transplanted mice were euthanized and serially transplanted to determine self-renewal capacity. Repopulating Units (RU) determination was previously decribed.^15 Briefly, RU=(C×CD45.2 repopulation %)/(100−CD45.2 repopulation %) where C=10^5 competitor cells.^6
Normal Repopulating units (RU) are calculated based on total number of competitor cells transplanted. Due to the expansion in the bone marrow compartment of SHIPi treated mice, we calculated the absolute RU numbers based on RU output determined by CRU assay and total BM cellularity. Total BM cellularity was determined via hemacytometer (BioRAD, TC20 cell counter) based on a total BM cells obtained from an intact set of femurs and tibias for each mouse in the study. Absolute RU=(Total BM cellularity/5×10^5)×RU.

PDGFRα+CD51+ MSC = assay: In vivo MSC immunophenotyping by flow cytometry; set-up: species or system mice; details: K118 10 mg/kg i.p. 5 days, vs H2O
Description: PDGFRα^+CD51^+ MSC were detected using methods and reagents as described by Iyer et al.^8 Femurs, tibias, humeri, ulnas, radii, and pelvis were dissected; the bone fragments were cleaned, cut into tiny pieces, and then crushed using a mortar and pestle. The bone chips were then washed several times in HBSS supplemented with 2% heat-inactivated FBS (HBSS/2% HI-FBS) and HBSS only, and then spun at 350×g for 5 mins. The pellet was re-suspended in 3 mg/mL type I collagenase (Worthington) and 15 μg/mL DNAase (Sigma, St. Louis, Mo.) dissolved in HBSS and incubated at 37° C. for 30 min at 110 rpm, this step was repeated twice. Following incubation, mononuclear cells were obtained using a Ficoll gradient ([…] and Histopaque-1077; Sigma, St. Louis, Mo.), and were then used for further analysis. Cells were stained with antibodies as described in Iyer et al.^8

immunoregulatory cells = assay: Preliminary oral K118 study: immunoregulatory cells; assay type: in vivo, wt C57BL/6 mice; details: K118 orally 10 mg/kg in water
Description: K118 was administered in water, and in wt C57BL/6 mice.

SHIP1 = molecular target: T1, SHIP1 (Homo sapiens, UniProt Q92835); assay: Fluorescence Polarization (FP) assay for SHIP1 enzymatic activity; assay type: biochemical; details: in vitro, hydrochloride
T1 sequence (Q92835 1-1189): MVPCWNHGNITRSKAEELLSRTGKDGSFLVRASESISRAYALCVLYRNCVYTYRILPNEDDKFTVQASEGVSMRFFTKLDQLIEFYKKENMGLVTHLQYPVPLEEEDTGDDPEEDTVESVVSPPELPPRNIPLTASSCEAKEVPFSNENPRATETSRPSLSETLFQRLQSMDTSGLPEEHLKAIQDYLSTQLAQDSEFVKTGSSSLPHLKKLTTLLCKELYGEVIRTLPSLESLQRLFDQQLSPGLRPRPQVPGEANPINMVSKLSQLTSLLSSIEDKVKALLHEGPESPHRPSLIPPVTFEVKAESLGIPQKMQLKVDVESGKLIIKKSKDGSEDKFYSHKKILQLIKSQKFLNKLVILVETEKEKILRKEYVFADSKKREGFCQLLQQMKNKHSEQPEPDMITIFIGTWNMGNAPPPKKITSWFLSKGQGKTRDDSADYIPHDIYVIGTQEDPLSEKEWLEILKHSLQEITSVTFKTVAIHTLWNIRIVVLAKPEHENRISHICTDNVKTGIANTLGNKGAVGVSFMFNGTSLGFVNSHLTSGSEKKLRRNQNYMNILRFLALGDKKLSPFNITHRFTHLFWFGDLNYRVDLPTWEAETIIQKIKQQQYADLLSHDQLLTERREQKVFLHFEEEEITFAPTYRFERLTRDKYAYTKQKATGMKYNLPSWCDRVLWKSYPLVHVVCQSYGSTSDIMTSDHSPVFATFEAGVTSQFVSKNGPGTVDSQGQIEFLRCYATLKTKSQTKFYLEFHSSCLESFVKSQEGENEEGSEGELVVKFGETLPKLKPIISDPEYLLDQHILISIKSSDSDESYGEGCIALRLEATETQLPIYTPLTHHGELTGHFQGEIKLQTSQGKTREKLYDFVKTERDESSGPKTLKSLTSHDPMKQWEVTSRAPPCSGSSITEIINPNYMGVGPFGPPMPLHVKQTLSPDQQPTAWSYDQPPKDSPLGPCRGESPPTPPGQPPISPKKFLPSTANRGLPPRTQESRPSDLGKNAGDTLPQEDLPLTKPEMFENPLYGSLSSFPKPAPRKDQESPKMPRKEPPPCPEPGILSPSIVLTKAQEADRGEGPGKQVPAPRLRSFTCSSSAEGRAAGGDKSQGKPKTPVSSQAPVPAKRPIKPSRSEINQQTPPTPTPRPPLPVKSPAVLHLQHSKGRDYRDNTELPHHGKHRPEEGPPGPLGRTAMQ
Description: FIGS. 6A-6F: Characterizations of the soluble SHIPi compound K118. FIG. 6A: Fluorescence Polarization (FP) assay comparing SHIPi enzymatic inhibitory activity between 3AC and K118 (IC50˜13.87). In the remaining panels we show for K118 and H2O treated mice (as indicated). FIG. 6B: Representative box and whisker graph depicting serum levels of G-CSF (n=4/group); FIG. 6C: Flow cytometric analysis comparing LT-HSC (LSKFlk2−CD34−), ST-HSC (LSKFlk2−CD34+), and MPP (LSKFlk2^+CD34^+); FIG. 6D: Absolute increase in BM LT-HSC, ST-HSC, and MPP (n=5/group). Primary CRU assay illustrating global and lineage reconstitution one month post transplant; Absolute increase in repopulating units (RU). FIG. 6E: Representative contour plots for PDGFRα^+CD51^+ MSC (after excluding CD45^+, CD31^+, Lin^+ cells); FIG. 6F: Box and whiskers graph illustrating the percentage of PDGFRa^+CD51^+ MSC (n=5/group); Representative images of CFU-F assays used to measure CFU-F frequencies in BM cells of treated mice and Box and whiskers graphs indicating CFU-F frequency in treated mice. All of the above comparisons are representative of two independent experiments.
(FIG. 6A) We sought to determine if this water-soluble K118 SHIPi compound has the capacity to increase G-CSF production within the same five-day injection period as 3AC. […]

## C[C@@]12CCC[C@H]1[C@@H]1CC[C@H]3C[C@@H](N)CC[C@]3(C)[C@H]1CC2.Cl [K118, 3β-amino-5α-androstane hydrochloride]
HSC; K118 treated vs H2O treated donors
  absolute CRU numbers: significant increase
HSC; primary CRU, WBM of K118 treated vs H2O treated mice
  CRU activity: significant increase
PDGFRα+CD51+ MSC
  MSC numbers in BM: significant expansion
Immunoregulatory cells
  neutrophil numbers: trend for increased
Immunoregulatory cells; mesenteric lymph node (mLN)
  frequency of natural T regulatory cells (nTreg, CD4+CD25+FoxP3+): Significant increases
Immunoregulatory cells; spleen
  frequency of myeloid derived suppressor cells (MDSC, Gr1+Mac1+): significant increase
  frequency of natural T regulatory cells (nTreg, CD4+CD25+FoxP3+): Significant increases
SHIP1
  SHIP1 inhibitory activity compared with 3AC: comparable SHIP1 inhibitory activity; also recorded: equal potency
